Patent US20240376094A2, “SELECTIVE BCL-XL PROTAC COMPOUNDS AND METHODS OF USE” (Les Laboratoires Servier, priority 2021, published 2024)

Columns and labels:
Format in all cases: cell-based
[1] = target: T1, HiBiT-tagged BCL-xL (Homo sapiens, UniProt Q07817); experiment: NCI-H1650 BCL-xL protein levels, Nano-Glo HiBiT Lytic Detection; conditions: NCI-H1650 expressing HiBiT-tagged BCL-xL, overnight incubation, read-out: Bcl-xl HIBIT NCIH1650 DC50
T1 construct: expressed in transfected cells; host or cells: NCI-H1650 (ATCC No. CRL-5883), engineered HiBiT cell line
T1 sequence (Q07817 whole entry): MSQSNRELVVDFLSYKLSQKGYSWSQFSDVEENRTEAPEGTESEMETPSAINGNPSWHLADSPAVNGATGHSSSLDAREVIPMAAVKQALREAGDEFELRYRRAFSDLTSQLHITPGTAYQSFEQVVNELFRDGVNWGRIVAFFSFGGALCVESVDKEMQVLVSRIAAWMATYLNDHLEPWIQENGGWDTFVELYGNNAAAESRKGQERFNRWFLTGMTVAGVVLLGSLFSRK
Protocol: (§1) The ability of the BCL-xL degrader low molecular weight compounds to degrade BCL-xL protein was assessed using the Promega Nano-Glo® HiBiT Lytic Detection System. The NCI-H1650 (ATCC No. CRL-5883) was engineered to express HiBiT-tagged BCL-xL. The NCI-H1650 HiBiT cell line was cultured in media that is optimal for their growth at 5% CO2, 37° C. in a tissue culture incubator. Prior to seeding for the protein level assay, the cells were split at least 2 days before the assay to ensure optimal growth density. On the day of seeding, cells were lifted off tissue culture flasks using 0.25% trypsin. Cell viability and cell density were determined using a cell counter (Vi-Cell XR Cell Viability Analyzer, Beckman Coulter). Cells with higher than 85% viability were seeded in white clear bottom 384-well plates (Greiner cat #781098) at a density of 5000 cells per well in 30 μL of standard growth media. Plates were incubated at 37° C. overnight in a tissue culture incubator.
(§2) The BCL-xL degrader low molecular weight compounds were prepared to desired concentrations. A series of 10 dilutions were made for each prepared compound. The prepared compounds were then added to the cells resulting in final concentrations of 0.508 nM-10 μM. An acoustic transfer device (Echo555, Beckman Coulter) was used to add the compounds to the cells. Each treatment was tested in triplicate assay plates. Plates were incubated at 37° C. overnight in a tissue culture incubator.
BCL-xL degradation was assessed through the addition of 30 μL of Nano-Glo® HiBiT Lytic Reagent (Promega, cat #N3040), a reagent which lyses cells and contains a furimazine substrate and the large subunit (LgBiT) used in NanoLuc® Binary Technology. The LgBiT subunit having high affinity to a HiBiT-tagged protein will bind HiBiT, if present, resulting in complex formation of a luminescent NanoBiT® enzyme. This reaction will emit a luminescent signal proportional to the amount of HiBiT-tagged BCL-xL present in the cell lysate. Plates were incubated at room temperature for 20 minutes to stabilize luminescent signals prior to reading using a luminescence reader (PHERAstar FSX Microplate Reader, BMG Labtech).
To evaluate the effect of the drug treatments, luminescent counts from wells containing untreated cells (100% HiBiT-tagged BCL-xL) were used to normalize treated samples. The concentrations of treatment required to inhibit 50% were calculated using a four parameter logistic regression equation.

[2] = target: T2, Bcl-xL (Homo sapiens, UniProt Q07817); experiment: HCT116 Bcl-xL degradation, capillary-based immunoassay (WES); conditions: HCT116, 24 h, 9-point serial dilution
T2 construct: Measured levels of Bcl-xL protein of HCT116 cells treated with the tested compounds; host or cells: HCT116
T2 sequence (Q07817 whole entry): as above
Outline: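 HCT116 cells treated 24 h with compound at 10/100 nM and/or 9-point dilution (quadruplicates), then lysed. Bcl-xL measured by capillary WES immunoassay, normalized to cofilin and expressed as % of untreated cells. DC50 from four-parameter curve fit.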

[3] = tested on: EBC-1 lung cancer cell line; experiment: EBC-1 cell proliferation, CellTiter-Glo assay; conditions: Homo sapiens, 120 h; Ebc-1 cell viability, CTG assay, 5 days of treatment; read-out: CTG 5 day Ebc1 GI50
Protocol: as §1, with “to inhibit cell proliferation and survival” for “to degrade BCL-xL protein”, “Promega CellTiter-Glo® proliferation assay on the EBC-1 lung cancer” for “Promega Nano-Glo® HiBiT Lytic Detection System. The NCI-H1650 (ATCC No. CRL-5883) was engineered to express HiBiT-tagged BCL-xL. The NCI-H1650 HiBiT”, “line (RCB1965, obtained from RIKEN.) The cells were” for “line was”, “the proliferation” for “the protein level”, “of 1000” for “of 5000”, “in 50” for “in 30”
as §2, with “overnight or for 5 days” for “overnight”, “incubator. The ability of the compounds to inhibit cell proliferation and survival was assessed using the Promega CellTiter-Glo® proliferation assay. Plates were incubated at room temperature for 20 minutes to stabilize luminescent signals prior to reading using a multimode plate reader (PHERAstar FSX Microplate Reader, BMG Labtech).” for “incubator.”
To evaluate the effect of the compound treatments, luminescent counts of untreated cells were taken the day after seeding (Day 0 readings), and after 5 days of treatment (Day 5 readings). The Day 5 readings of the untreated cells were compared to the Day 0 readings. Assays with at least one cell doubling during the incubation period were considered valid. To evaluate the effect of the drug treatments, luminescent counts from wells containing untreated cells (100% viability) were used to normalize treated samples. The concentrations of treatment required to inhibit 50% of cell growth or survival ([…]) were calculated using a four parameter logistic regression equation.

[4] = tested on: MOLT-4 cells; experiment: MOLT-4 cell viability, CTG assay; conditions: Homo sapiens, MOLT-4, 48 h
Outline: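 Cells grown in RPMI 1640 with 10% FBS at 37° C, 5% CO2, then exposed to compounds for 48 h (11-point 5-fold dilution, triplicates). ATP measured by CellTiter-Glo luminescence; IC50 from four-parameter fit versus control, mean of ≥2 independent experiments.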

Row | SMILES | DC50 [1] | DC50 [2] | GI50 [3] | IC50 [4]
1 | Cc1ncsc1-c1ccc([C@H](C)NC(=O)C2C[C@@H](O)CN2C(=O)C(NC(=O)COCCOCCOCCOCCN(C)CCOC23CC4(C)CC(C)(CC(Cn5ncc(-c6ccc(N7CCCc8c7nnc(Nc7nc9ccccc9s7)c8C)nc6C(=O)O)c5C)(C4)C2)C3)C(C)(C)C)cc1 (stereo in doubt) [Example 87, 6-[3-(1,3-benzothiazol-2-ylamino)-4-methyl-6,7-dihydro-5H-pyrido[2,3-c]pyridazin-8-yl]-3-[1-[[3-[2-[2-[2-[2-[2-[2-[[(1S)-1-[(2S,4R)-4-hydroxy-2-[[(1S)-1-[4-(4-methylthiazol-5-yl)phenyl]ethyl]carbamoyl]pyrrolidine-1-carbonyl]-2,2-dimethyl-propyl]amino]-2-oxo-ethoxy]ethoxy]ethoxy]ethoxy]ethyl-methyl-amino]ethoxy]-5,7-dimethyl-1-adamantyl]methyl]-5-methyl-pyrazol-4-yl]pyridine-2-carboxylic acid] | > 1670 nM | > 316 nM | 216 nM | 34.7 nM
2 | Cc1ncsc1-c1ccc(CNC(=O)[C@@H]2C[C@@H](O)CN2C(=O)[C@@H](NC(=O)C2(F)CC2)C(C)(C)C)c(OCCCCCCCCCN(C)CCOC23CC4(C)CC(C)(CC(Cn5ncc(-c6ccc(N7CCCc8c7nnc(Nc7nc9ccccc9s7)c8C)nc6C(=O)O)c5C)(C4)C2)C3)c1 [Example 72, 6-[3-(1,3-benzothiazol-2-ylamino)-4-methyl-6,7-dihydro-5H-pyrido[2,3-c]pyridazin-8-yl]-3-[1-[[3-[2-[9-[2-[[[(2S,4R)-1-[(2S)-2-[(1-fluorocyclopropanecarbonyl)amino]-3,3-dimethyl-butanoyl]-4-hydroxy-pyrrolidine-2-carbonyl]amino]methyl]-5-(4-methylthiazol-5-yl)phenoxy]nonyl-methyl-amino]ethoxy]-5,7-dimethyl-1-adamantyl]methyl]-5-methyl-pyrazol-4-yl]pyridine-2-carboxylic acid] | > 1670 nM | 13.3 nM | 179 nM | 16.7 nM
3 | Cc1ncsc1-c1ccc(CNC(=O)[C@@H]2C[C@@H](O)CN2C(=O)[C@@H](NC(=O)C2(F)CC2)C(C)(C)C)c(OCCCCCCCCCCN(C)CCOC23CC4(C)CC(C)(CC(Cn5ncc(-c6ccc(N7CCCc8c7nnc(Nc7nc9ccccc9s7)c8C)nc6C(=O)O)c5C)(C4)C2)C3)c1 [Example 73, 6-[3-(1,3-benzothiazol-2-ylamino)-4-methyl-6,7-dihydro-5H-pyrido[2,3-c]pyridazin-8-yl]-3-[1-[[3-[2-[10-[2-[[[(2S,4R)-1-[(2S)-2-[(1-fluorocyclopropanecarbonyl)amino]-3,3-dimethyl-butanoyl]-4-hydroxy-pyrrolidine-2-carbonyl]amino]methyl]-5-(4-methylthiazol-5-yl)phenoxy]decyl-methyl-amino]ethoxy]-5,7-dimethyl-1-adamantyl]methyl]-5-methyl-pyrazol-4-yl]pyridine-2-carboxylic acid] | 13 nM | 7.69 nM | 186 nM | 24 nM
4 | Cc1ncsc1-c1ccc([C@H](C)NC(=O)[C@@H]2C[C@@H](O)CN2C(=O)[C@@H](NC(=O)CCCCCCCCCCCCCN(C)CCOC23CC4(C)CC(C)(CC(Cn5ncc(-c6ccc(N7CCCc8c7nnc(Nc7nc9ccccc9s7)c8C)nc6CO)c5C)(C4)C2)C3)C(C)(C)C)cc1 [Example 155, (2S,4R)-1-[(2S)-2-[14-[2-[[3-[[4-[6-[3-(1,3-benzothiazol-2-ylamino)-4-methyl-6,7-dihydro-5H-pyrido[2,3-c]pyridazin-8-yl]-2-(hydroxymethyl)-3-pyridyl]-5-methyl-pyrazol-1-yl]methyl]-5,7-dimethyl-1-adamantyl]oxy]ethyl-methyl-amino]tetradecanoylamino]-3,3-dimethyl-butanoyl]-4-hydroxy-N-[(1S)-1-[4-(4-methylthiazol-5-yl)phenyl]ethyl]pyrrolidine-2-carboxamide] | > 1670 nM |  | 431 nM | 22.1 nM

Other lines, results leading:

Row | DC50 [1] | DC50 [2] | GI50 [3] | IC50 [4] | SMILES
5 | > 1670 nM |  | 18 nM | 13.7 nM | Cc1ncsc1-c1ccc([C@H](C)NC(=O)[C@@H]2C[C@@H](O)CN2C(=O)[C@@H](NC(=O)C2CCN(C(=O)CCCCCCCCCCCN(C)CCOC34CC5(C)CC(C)(CC(Cn6ncc(-c7ccc(N8CCCc9c8nnc(Nc8nc%10ccccc%10s8)c9C)nc7C(=O)O)c6C)(C5)C3)C4)CC2)C(C)(C)C)cc1 [Example 86, 6-[3-(1,3-benzothiazol-2-ylamino)-4-methyl-6,7-dihydro-5H-pyrido[2,3-c]pyridazin-8-yl]-3-[1-[[3-[2-[[12-[4-[[(1S)-1-[(2S,4R)-4-hydroxy-2-[[(1S)-1-[4-(4-methylthiazol-5-yl)phenyl]ethyl]carbamoyl]pyrrolidine-1-carbonyl]-2,2-dimethyl-propyl]carbamoyl]-1-piperidyl]-12-oxo-dodecyl]-methyl-amino]ethoxy]-5,7-dimethyl-1-adamantyl]methyl]-5-methyl-pyrazol-4-yl]pyridine-2-carboxylic acid]
6 | 18 nM |  | 869 nM | 67 nM | Cc1cc(N(CCCCN(C)C(=O)CCCCCCCCCCC(=O)N[C@H](C(=O)N2C[C@H](O)C[C@H]2C(=O)N[C@@H](C)c2ccc(-c3scnc3C)cc2)C(C)(C)C)c2ccc(-c3cnn(CC45CC6(C)CC(C)(C4)CC(OCCN(C)C)(C6)C5)c3C)c(C(=O)N(C)C)n2)nnc1Nc1nc2ccccc2s1 [Example 128, N′-[4-[[6-(1,3-benzothiazol-2-ylamino)-5-methyl-pyridazin-3-yl]-[5-[1-[[3-[2-(dimethylamino)ethoxy]-5,7-dimethyl-1-adamantyl]methyl]-5-methyl-pyrazol-4-yl]-6-(dimethylcarbamoyl)-2-pyridyl]amino]butyl]-N-[(1S)-1-[(2S,4R)-4-hydroxy-2-[[(1S)-1-[4-(4-methylthiazol-5-yl)phenyl]ethyl]carbamoyl]pyrrolidine-1-carbonyl]-2,2-dimethyl-propyl]-N′-methyl-dodecanediamide]
